Data: US5106407A, “Iodones and methods for antimicrobial use” (priority 1989, dated 1992)
Converted amounts (≈) assume the structure as drawn.

Assays:
Assay in all cases: minimum inhibitory concentration (MIC), agar dilution
Type in all cases: cell-based
Salmonella choleraesuis = conditions: Salmonella enterica, ATCC 10708 / CHOLERAESUIS, nutrient agar pH 6.8, read-out: MIC
Procedure: (§1) The minimum inhibitory concentration (MIC) for the compound of Example 19, i.e., (2-nitrophenyl)-iodonium 2,2-dimethyl-4,6-dioxo-1,3-dioxan-5-ylide was determined for 9 bacteria (using nutrient agar) and 5 yeast and fungi (using malt yeast agar). A one percent solution of this test compound (i.e., the compound of Example 19) was prepared in a mixture of acetone-water. Nutrient agar was prepared at pH 6.8 using deionized water according to standard Difco procedures. Malt yeast agar was prepared by adding 3 g Bacto yeast extract and 42 g Bacto Malt agar per liter of deionized water. The agar (nutrient agar when testing with bacteria and malt yeast agar when testing with yeast and fungi) was dispensed in 30 mL aliquots into 25×200 millimeter (mm) test tubes, capped and autoclaved for 15 min at 115° C. The test tubes containing the agar were cooled in a water bath until the temperature of the agar was 48° C. and then an appropriate amount of the one percent solution of the test compound was added (except in the controls where no test compound was added with the acetone-water) to the respective test tubes so that final concentrations of 500, 250, 100, 50, 25, 10, 5, 2.5, 1.0 and 0 parts per million (ppm) of the test compound in the agar were obtained. The agar solutions were each mixed and poured into individual petri plates so that each petri plate contained agar having a known concentration of test compound dispersed therein. After drying for 24 hr, the petri plates were inoculated with bacteria when the petri plates contained nutrient broth agar or with fungi and yeast when the petri plates contained malt yeast agar.
(§2) The inoculation with bacteria was accomplished using the following procedure. Twenty-four hr cultures of each of the bacteria were prepared by incubating the respective bacteria in tubes containing nutrient broth for 24 hr at 30° C. in a shaker. Dilutions of each of the 24 hr cultures were made so that 9 separate suspensions (one for each of the 9 test bacteria) were made, each containing about 10^8 colony forming units (CFU) per mL of suspension of a particular bacteria. Aliquots of 0.3 mL of each of the above suspensions were used to fill individual wells of a Steer's Replicator. For each microbial suspension, 0.3 mL was used to fill 3 wells (i.e., 3 wells of 0.3 mL each) so that for the 9 different bacteria 27 wells were filled. The Steer's Replicator was then used to inoculate the petri plates.
(§3) The petri plates were incubated at 30° C. for 48 hr and then read to determine if the test compound (i.e., the compound of Example 19) which was incorporated into the agar prevented growth of the respective bacteria. The minimum inhibitory concentration (MIC) for each bacteria was defined as the lowest concentration of the test compound which prevented growth of that bacteria.
(§4) In a similar procedure, the MIC (in ppm) of the compound of Example 11 (i.e., (2-nitrophenyl)-iodonium 2,6-dioxocyclohexylide) for various organisms was determined at an acid pH (about 6.8) and at an alkaline pH (about 8.2).

Pseudomonas aeruginosa = conditions: Pseudomonas aeruginosa, ATCC10145; ATCC 10145; nutrient agar pH 6.8; read-out: MIC
Procedure: as §1, §2, §3, §4

Staphylococcus aureus = conditions: Staphylococcus aureus, ATCC6538; ATCC 6538; nutrient agar pH 6.8; read-out: MIC
Procedure: as §1, §2, §3, §4

[1] = system: Pseudomonas aeruginosa PRD-10; conditions: Pseudomonas aeruginosa, ATCC15442; ATCC 15442; nutrient agar pH 6.8; read-out: MIC
Procedure: as §1, §2, §3, §4

Klebsiella pneumoniae = conditions: Klebsiella pneumoniae, ATCC8308; ATCC 8308; nutrient agar pH 6.8; read-out: MIC
Procedure: as §1, §2, §3, §4

Escherichia coli = conditions: Escherichia coli, ATCC11229; ATCC 11229; nutrient agar pH 6.8; read-out: MIC
Procedure: as §1, §2, §3, §4

Proteus vulgaris = conditions: Proteus vulgaris, ATCC881; ATCC 881; nutrient agar pH 6.8; read-out: MIC
Procedure: as §1, §2, §3, §4

**Q.** How did the MIC (Salmonella choleraesuis) turn out when CC1(C)OC(=O)[C-]([I+]c2ccccc2[N+](=O)[O-])C(=O)O1 [Example 19, (2-Nitrophenyl)-iodonium 2,2-dimethyl-4,6-dioxo-1,3-dioxan-5-ylide] was run?
**A.** The MIC was at most 1 µg/mL.

**Q.** And the MIC (Pseudomonas aeruginosa)?
**A.** Its MIC is 10 µg/mL (≈ 25.6 µM).

**Q.** And the MIC (Staphylococcus aureus)?
**A.** The MIC was at most 1 µg/mL.

**Q.** What about the MIC [1] of the same compound?
**A.** The MIC was 10 µg/mL (≈ 25.6 µM).

**Q.** And the MIC (Klebsiella pneumoniae)?
**A.** Its MIC is at most 1 µg/mL.

**Q.** And the MIC (Escherichia coli)?
**A.** The MIC was at most 1 µg/mL.

**Q.** What about the MIC (Proteus vulgaris) of the same compound?
**A.** Its MIC is at most 1 µg/mL.
